# Test results: PubChem BioAssay (NCI)
#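 48-hour exposure; five concentrations; linearly interpolated endpoints. The concentration for 50% growth inhibition is given as GI50. At the TGI there is no net growth.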
# Tests used:
# Assay in all cases: NCI-60 cell line screen, 48 h
# SK-MEL-2 melanoma = system: SK-MEL-2 melanoma
# NCI-H460 lung = system: NCI-H460 lung
# SK-OV-3 ovarian = system: SK-OV-3 ovarian
# TK-10 renal = system: TK-10 renal
# HT29 colon = system: HT29 colon
# HCC-2998 colon = system: HCC-2998 colon
# ACHN renal = system: ACHN renal
# NCI-H522 lung = system: NCI-H522 lung
# M14 melanoma = system: M14 melanoma
# OVCAR-4 ovarian = system: OVCAR-4 ovarian
# SNB-19 CNS = system: SNB-19 CNS
# HCT-116 colon = system: HCT-116 colon
# COLO 205 colon = system: COLO 205 colon
# LOX IMVI melanoma = system: LOX IMVI melanoma
# 786-0 renal = system: 786-0 renal
# T-47D breast = system: T-47D breast
# SF-268 CNS = system: SF-268 CNS
# A498 renal = system: A498 renal
# MDA-MB-231 breast = system: MDA-MB-231 breast
# DU-145 prostate = system: DU-145 prostate
# IGROV1 ovarian = system: IGROV1 ovarian
# UACC-257 melanoma = system: UACC-257 melanoma
# SW-620 colon = system: SW-620 colon
# A549 NSCLC = system: A549 NSCLC
# HCT-15 colon = system: HCT-15 colon
# CAKI-1 renal = system: CAKI-1 renal
# SR leukemia = system: SR leukemia
# MCF7 breast = system: MCF7 breast
# RXF 393 renal = system: RXF 393 renal
# EKVX NSCLC = system: EKVX NSCLC
# MDA-MB-435 = system: MDA-MB-435
# OVCAR-3 ovarian = system: OVCAR-3 ovarian
# RPMI-8226 leukemia = system: RPMI-8226 leukemia
# SF-295 CNS = system: SF-295 CNS
# NCI-H226 lung = system: NCI-H226 lung
# SN12C renal = system: SN12C renal
# OVCAR-5 ovarian = system: OVCAR-5 ovarian
# MDA-MB-468 breast = system: MDA-MB-468 breast
# K-562 leukemia = system: K-562 leukemia
# HOP-62 NSCLC = system: HOP-62 NSCLC
# SF-539 CNS = system: SF-539 CNS
# UO-31 renal = system: UO-31 renal
# BT-549 breast = system: BT-549 breast
# MOLT-4 leukemia = system: MOLT-4 leukemia
# NCI-H23 lung = system: NCI-H23 lung
# HL-60(TB) leukemia = system: HL-60(TB) leukemia
# OVCAR-8 ovarian = system: OVCAR-8 ovarian
# NCI/ADR-RES ovarian = system: NCI/ADR-RES ovarian
# KM12 colon = system: KM12 colon
# SK-MEL-5 melanoma = system: SK-MEL-5 melanoma
# PC-3 prostate = system: PC-3 prostate
# UACC-62 melanoma = system: UACC-62 melanoma
# SK-MEL-28 melanoma = system: SK-MEL-28 melanoma
# U251 CNS = system: U251 CNS
# CCRF-CEM leukemia = system: CCRF-CEM leukemia
# HS 578T breast = system: HS 578T breast
# SNB-75 CNS = system: SNB-75 CNS
# HOP-92 NSCLC = system: HOP-92 NSCLC
# MALME-3M melanoma = system: MALME-3M melanoma
smiles,measurement,setting,value
CC(C)NC(=O)c1cc(-c2ccc(NC(=O)Nc3ccc(N4CCN(C)CC4)c(C(F)(F)F)c3)cc2)nc2cccnc12,GI50,SK-MEL-2 melanoma,2.72 µM
same,TGI,SK-MEL-2 melanoma,6.5 µM
same,GI50,NCI-H460 lung,2.11 µM
same,TGI,NCI-H460 lung,4.04 µM
same,GI50,SK-OV-3 ovarian,4.85 µM
same,TGI,SK-OV-3 ovarian,16.2 µM
same,GI50,TK-10 renal,2.24 µM
same,TGI,TK-10 renal,4.18 µM
same,GI50,HT29 colon,1.95 µM
same,TGI,HT29 colon,3.98 µM
same,GI50,HCC-2998 colon,2.09 µM
same,TGI,HCC-2998 colon,3.96 µM
same,GI50,ACHN renal,2.03 µM
same,TGI,ACHN renal,3.74 µM
same,GI50,NCI-H522 lung,2.01 µM
same,TGI,NCI-H522 lung,4.02 µM
same,GI50,M14 melanoma,2 µM
same,TGI,M14 melanoma,4.13 µM
same,GI50,OVCAR-4 ovarian,2.21 µM
same,TGI,OVCAR-4 ovarian,5.18 µM
same,GI50,SNB-19 CNS,2.09 µM
same,TGI,SNB-19 CNS,4.75 µM
same,GI50,HCT-116 colon,2.06 µM
same,TGI,HCT-116 colon,3.92 µM
same,GI50,COLO 205 colon,2.37 µM
same,TGI,COLO 205 colon,5.56 µM
same,GI50,LOX IMVI melanoma,1.95 µM
same,TGI,LOX IMVI melanoma,3.62 µM
same,GI50,786-0 renal,1.65 µM
same,TGI,786-0 renal,3.34 µM
same,GI50,T-47D breast,1.71 µM
same,TGI,T-47D breast,31 µM
same,GI50,SF-268 CNS,6.09 µM
same,TGI,SF-268 CNS,16.8 µM
same,GI50,A498 renal,13.5 µM
same,TGI,A498 renal,19.3 µM
same,GI50,MDA-MB-231 breast,0.82 µM
same,TGI,MDA-MB-231 breast,2.03 µM
same,GI50,DU-145 prostate,2.18 µM
same,TGI,DU-145 prostate,4.15 µM
same,GI50,IGROV1 ovarian,1.74 µM
same,TGI,IGROV1 ovarian,3.55 µM
same,GI50,UACC-257 melanoma,2.09 µM
same,TGI,UACC-257 melanoma,4.2 µM
same,GI50,SW-620 colon,1.79 µM
same,TGI,SW-620 colon,3.74 µM
same,GI50,A549 NSCLC,6.5 µM
same,TGI,A549 NSCLC,12.8 µM
same,GI50,HCT-15 colon,2.1 µM
same,TGI,HCT-15 colon,4.2 µM
same,GI50,CAKI-1 renal,1.96 µM
same,TGI,CAKI-1 renal,3.74 µM
same,GI50,SR leukemia,2.29 µM
same,TGI,SR leukemia,7.45 µM
same,GI50,MCF7 breast,0.397 µM
same,TGI,MCF7 breast,2.79 µM
same,GI50,RXF 393 renal,1.07 µM
same,TGI,RXF 393 renal,2.89 µM
same,GI50,EKVX NSCLC,2.19 µM
same,TGI,EKVX NSCLC,4.3 µM
same,GI50,MDA-MB-435,1.94 µM
same,TGI,MDA-MB-435,3.88 µM
same,GI50,OVCAR-3 ovarian,1.91 µM
same,TGI,OVCAR-3 ovarian,3.94 µM
same,GI50,RPMI-8226 leukemia,2 µM
same,TGI,RPMI-8226 leukemia,7.82 µM
same,GI50,SF-295 CNS,1.83 µM
same,TGI,SF-295 CNS,3.57 µM
same,GI50,NCI-H226 lung,6.13 µM
same,TGI,NCI-H226 lung,14.8 µM
same,GI50,SN12C renal,1.81 µM
same,TGI,SN12C renal,3.53 µM
same,GI50,OVCAR-5 ovarian,1.98 µM
same,TGI,OVCAR-5 ovarian,3.81 µM
same,GI50,MDA-MB-468 breast,0.801 µM
same,TGI,MDA-MB-468 breast,2.29 µM
same,GI50,K-562 leukemia,2.79 µM
same,TGI,K-562 leukemia,33.4 µM
same,GI50,HOP-62 NSCLC,2.24 µM
same,TGI,HOP-62 NSCLC,4.73 µM
same,GI50,SF-539 CNS,1.51 µM
same,TGI,SF-539 CNS,3.06 µM
same,GI50,UO-31 renal,1.76 µM
same,TGI,UO-31 renal,3.39 µM
same,GI50,BT-549 breast,1.37 µM
same,TGI,BT-549 breast,6.31 µM
same,GI50,MOLT-4 leukemia,1.05 µM
same,TGI,MOLT-4 leukemia,4.19 µM
same,GI50,NCI-H23 lung,2.23 µM
same,TGI,NCI-H23 lung,4.44 µM
same,GI50,HL-60(TB) leukemia,0.572 µM
same,TGI,HL-60(TB) leukemia,3.18 µM
same,GI50,OVCAR-8 ovarian,2.16 µM
same,TGI,OVCAR-8 ovarian,4.81 µM
same,GI50,NCI/ADR-RES ovarian,3.29 µM
same,TGI,NCI/ADR-RES ovarian,9.35 µM
same,GI50,KM12 colon,2.43 µM
same,TGI,KM12 colon,5.12 µM
same,GI50,SK-MEL-5 melanoma,2.07 µM
same,TGI,SK-MEL-5 melanoma,3.76 µM
same,GI50,PC-3 prostate,1.82 µM
same,TGI,PC-3 prostate,4.81 µM
same,GI50,UACC-62 melanoma,2.11 µM
same,TGI,UACC-62 melanoma,4.13 µM
same,GI50,SK-MEL-28 melanoma,1.98 µM
same,TGI,SK-MEL-28 melanoma,3.68 µM
same,GI50,U251 CNS,1.74 µM
same,TGI,U251 CNS,3.55 µM
same,GI50,CCRF-CEM leukemia,0.539 µM
same,TGI,CCRF-CEM leukemia,3.82 µM
same,GI50,HS 578T breast,1.36 µM
same,TGI,HS 578T breast,7.5 µM
same,GI50,SNB-75 CNS,0.657 µM
same,TGI,SNB-75 CNS,4.94 µM
same,GI50,HOP-92 NSCLC,0.98 µM
same,TGI,HOP-92 NSCLC,2.94 µM
same,GI50,MALME-3M melanoma,1.65 µM
same,TGI,MALME-3M melanoma,3.32 µM
